Laboratory results published in PubChem BioAssay AID248 (DTP/NCI, 2004).
Toxic doses and inconclusive results are not listed. Rule as the data show it: active = T/C of 150% or more; inactive = T/C below 125%.

System: L1210 leukemia ip in BDF1 mice, survival T/C
Test: NCI In Vivo Anticancer Drug Screen. Data for tumor model L1210 Leukemia (intraperitoneal) in B6D2F1 (BDF1) mice
Settings: endpoint: mean survival time, higher = longer survival
Procedure, shortened: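 Tumor was transplanted into mice, which were then dosed with test compound or vehicle alone. Survival was recorded for each group, and the treated figure was expressed relative to the control figure.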

[1] = dose: 100.0 mg/kg/injection, schedule: Q01DX001 (ip), vehicle: carboxymethylcellulose (CMC)
[2] = dose: 200.0 mg/kg/injection, schedule: Q01DX001 (ip), vehicle: carboxymethylcellulose (CMC)
[3] = dose: 100.0 mg/kg/injection, schedule: Q04DX003 (ip), vehicle: Klucel (hydroxypropylcellulose) (HPC)
[4] = dose: 200.0 mg/kg/injection, schedule: Q04DX003 (ip), vehicle: Klucel (hydroxypropylcellulose) (HPC)
[5] = dose: 400.0 mg/kg/injection, schedule: Q04DX003 (ip), vehicle: Klucel (hydroxypropylcellulose) (HPC)
[6] = dose: 100.0 mg/kg/injection, schedule: Q01DX001 (ip), vehicle: saline
[7] = dose: 200.0 mg/kg/injection, schedule: Q01DX001 (ip), vehicle: saline
[8] = dose: 100.0 mg/kg/injection, schedule: Q01DX009 (ip), vehicle: saline
[9] = dose: 100.0 mg/kg/injection, schedule: Q04DX003 (ip), vehicle: saline
[10] = dose: 200.0 mg/kg/injection, schedule: Q01DX009 (ip), vehicle: saline
[11] = dose: 200.0 mg/kg/injection, schedule: Q04DX003 (ip), vehicle: saline
[12] = dose: 400.0 mg/kg/injection, schedule: Q01DX009 (ip), vehicle: saline
[13] = dose: 400.0 mg/kg/injection, schedule: Q04DX003 (ip), vehicle: saline
[14] = dose: 100.0 mg/kg/injection, schedule: Q01DX009 (ip), vehicle: Klucel (hydroxypropylcellulose) (HPC)
[15] = dose: 200.0 mg/kg/injection, schedule: Q01DX009 (ip), vehicle: Klucel (hydroxypropylcellulose) (HPC)
[16] = dose: 400.0 mg/kg/injection, schedule: Q01DX009 (ip), vehicle: Klucel (hydroxypropylcellulose) (HPC)
[17] = dose: 400.0 mg/kg/injection, schedule: Q01DX001 (ip), vehicle: saline

Measured: T/C

CCCCCCCCCCCCCCCCCC[N+](C)(C)c1nc(Cl)nc(Cl)n1
inactive: dose: 13.0 mg/kg/injection, schedule: Q01DX015 (ip), vehicle: carboxymethylcellulose (CMC) 98 % of control | dose: 25.0 mg/kg/injection, schedule: Q01DX015 (ip), vehicle: carboxymethylcellulose (CMC) 92 % of control | dose: 37.5 mg/kg/injection, schedule: Q04DX003 (ip), vehicle: Klucel (hydroxypropylcellulose) (HPC) 103 % of control | dose: 50.0 mg/kg/injection, schedule: Q01DX015 (ip), vehicle: carboxymethylcellulose (CMC) 93 % of control | dose: 75.0 mg/kg/injection, schedule: Q04DX003 (ip), vehicle: Klucel (hydroxypropylcellulose) (HPC) 97 % of control | [1] 92 % of control | dose: 100.0 mg/kg/injection, schedule: Q01DX015 (ip), vehicle: carboxymethylcellulose (CMC) 93 % of control | [2] 97 % of control

COC(=O)c1ccccc1N=NN(C)C1CCCCC1
inactive: dose: 100.0 mg/kg/injection, schedule: Q01DX009 (ip), vehicle: other 106 % of control | dose: 200.0 mg/kg/injection, schedule: Q01DX009 (ip), vehicle: other 87 % of control

CCCCCCCCCCCCCCCOc1ccc(C)cc1
inactive: [3] 93 % of control | [4] 101 % of control | [5] 95 % of control

CNc1cc(Cl)ncn1
inactive: dose: 50.0 mg/kg/injection, schedule: Q01DX001 (ip), vehicle: saline 90 % of control | [6] 93 % of control | [7] 95 % of control

Clc1ccccc1C(c1ccc(-c2ccccc2)cc1)(c1ccc(-c2ccccc2)cc1)n1ccnc1
inactive: [3] 95 % of control | [4] 104 % of control | [5] 90 % of control

O=C(O)Cc1sc(=O)[nH]c1O
inactive: [8] 96 % of control | [9] 102 % of control | [10] 96 % of control | [11] 96 % of control | [12] 99 % of control | [13] 106 % of control

O=C(/C=C/C(=O)Oc1ccc(Cl)cc1Cl)Oc1ccc(Cl)cc1Cl
inactive: [14] 94 % of control | [3] 111 % of control | [15] 95 % of control | [4] 100 % of control | [16] 97 % of control | [5] 100 % of control

Nc1ccc2c(c1)CCC2=O
inactive: dose: 100.0 mg/kg/injection, schedule: Q04DX002 (ip), vehicle: saline with Tween-80 98 % of control | dose: 200.0 mg/kg/injection, schedule: Q04DX002 (ip), vehicle: saline with Tween-80 102 % of control | dose: 400.0 mg/kg/injection, schedule: Q04DX002 (ip), vehicle: saline with Tween-80 90 % of control

CCN(CC)CCCC(C)Nc1cc(N)c2ncc(-c3ccc(Cl)cc3)nc2n1 (configuration not stated)
inactive: dose: 75.0 mg/kg/injection, schedule: Q01DX001 (ip), vehicle: saline 96 % of control | dose: 150.0 mg/kg/injection, schedule: Q01DX001 (ip), vehicle: saline 102 % of control

O=C(Nc1ccc(Cl)cc1)Nc1cccc(F)c1
inactive: [14] 90 % of control | [15] 94 % of control | [16] 110 % of control

Cc1ccc(N2C(=O)CNC2=O)cc1
inactive: dose: 100.0 mg/kg/injection, schedule: Q01DX001 (ip), vehicle: Klucel (hydroxypropylcellulose) (HPC) 101 % of control | dose: 200.0 mg/kg/injection, schedule: Q01DX001 (ip), vehicle: Klucel (hydroxypropylcellulose) (HPC) 101 % of control | dose: 400.0 mg/kg/injection, schedule: Q01DX001 (ip), vehicle: Klucel (hydroxypropylcellulose) (HPC) 96 % of control

CCOC(=O)N(O)c1ccc(/C=C/c2ccccc2)cc1
inactive: [1] 98 % of control | [2] 93 % of control | dose: 400.0 mg/kg/injection, schedule: Q01DX001 (ip), vehicle: carboxymethylcellulose (CMC) 98 % of control

NCCCCCCNC(=O)CCCCC(=O)NCCCCCCN
inactive: dose: 8.0 mg/kg/injection, schedule: Q01DX Z (ip), vehicle: water 88 % of control | dose: 16.0 mg/kg/injection, schedule: Q01DX Z (ip), vehicle: water 86 % of control | dose: 32.0 mg/kg/injection, schedule: Q01DX Z (ip), vehicle: water 89 % of control | dose: 64.0 mg/kg/injection, schedule: Q01DX Z (ip), vehicle: saline 90 % of control | dose: 64.0 mg/kg/injection, schedule: Q01DX Z (ip), vehicle: water 91 % of control

CC1(C)C2C=CC1C(CO)(CO)C2 (configuration not stated)
inactive: [8] 105 % of control | [9] 103 % of control | [10] 97 % of control | [11] 92 % of control | [12] 100 % of control | [13] 109 % of control

CCOC(=O)C1CC1Cc1ccccc1 (configuration not stated)
inactive: dose: 100.0 mg/kg/injection, schedule: Q01DX009 (ip), vehicle: saline with Tween-80 101 % of control | [9] 100 % of control | dose: 200.0 mg/kg/injection, schedule: Q01DX009 (ip), vehicle: saline with Tween-80 102 % of control | [11] 105 % of control | dose: 400.0 mg/kg/injection, schedule: Q01DX009 (ip), vehicle: saline with Tween-80 104 % of control | [13] 94 % of control

CCC1(c2ccccc2)CCN(C)C1 (configuration not stated)
inactive: dose: 75.0 mg/kg/injection, schedule: Q01DX001 (ip), vehicle: carboxymethylcellulose (CMC) 93 % of control

CC(=O)Nc1ccc(OC(=O)Nc2cc(C)ccc2C)cc1
inactive: dose: 25.0 mg/kg/injection, schedule: Q01DX009 (ip), vehicle: Klucel (hydroxypropylcellulose) (HPC) 109 % of control | dose: 50.0 mg/kg/injection, schedule: Q01DX009 (ip), vehicle: Klucel (hydroxypropylcellulose) (HPC) 88 % of control | [14] 94 % of control | dose: 100.0 mg/kg/injection, schedule: Q04DX002 (ip), vehicle: Klucel (hydroxypropylcellulose) (HPC) 102 % of control | [3] 95 % of control | [15] 89 % of control | dose: 200.0 mg/kg/injection, schedule: Q04DX002 (ip), vehicle: Klucel (hydroxypropylcellulose) (HPC) 97 % of control | [4] 97 % of control | dose: 400.0 mg/kg/injection, schedule: Q04DX002 (ip), vehicle: Klucel (hydroxypropylcellulose) (HPC) 100 % of control | [5] 93 % of control

CC/C(=N/N=C(N)N)c1ccc(NC(=O)Nc2ccc(/C(CC)=N/N=C(N)N)cc2)cc1
inactive: dose: 2.5 mg/kg/injection, schedule: Q01DX009 (ip), vehicle: saline 103 % of control | dose: 5.0 mg/kg/injection, schedule: Q01DX009 (ip), vehicle: saline 121 % of control | dose: 10.0 mg/kg/injection, schedule: Q01DX009 (ip), vehicle: saline 107 % of control

Cc1ccc(OS(=O)(=O)C2CC2c2ccccc2)cc1 (configuration not stated)
inactive: [6] 92 % of control | [9] 102 % of control | [7] 97 % of control | [11] 98 % of control | [17] 98 % of control | [13] 94 % of control

COC(=O)C1C2C(C)=C3CCCCC3(C1C(=O)OC)C(C(=O)OC)C2C(=O)OC (configuration not stated)
inactive: [6] 113 % of control | [7] 95 % of control | [17] 86 % of control

C=C(C)C1CC=C(C)CC1 (configuration not stated)
inactive: [6] 111 % of control | [8] 91 % of control | [9] 110 % of control | [7] 105 % of control | [11] 97 % of control | [17] 111 % of control | [13] 97 % of control
